Legend:
Assay type in all cases: in vivo
[1] = system: morningglory (Ipomoea coccinea); test: Test B pre-/postemergence plant response; conditions: Postemergence
Summary of the method: (§1)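 Visual ratings on a 0–100 scale (100 = complete control) were made versus untreated controls 13–15 days after treatment in a greenhouse. Compounds in surfactant-containing non-phytotoxic solvent were applied preemergence to seeds in loam–sand blend or postemergence to 1- to 4-leaf plants (2–18 cm).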

[2] = system: cocklebur (Xanthium strumarium); test: Test B pre-/postemergence plant response; conditions: Postemergence
Summary of the method: as §1

[3] = system: soybean (Glycine max); test: Test B pre-/postemergence plant response; conditions: Postemergence
Summary of the method: as §1

[4] = system: wheat (Triticum aestivum); test: Test B pre-/postemergence plant response; conditions: Postemergence
Summary of the method: as §1

[5] = system: giant foxtail (Setaria faberii); test: Test A pre-/postemergence plant response; conditions: for Foxtail, Giant plant response rating: visual injury, 0 to 100 scale (0 no effect, 100 complete control), approx. ten days
Summary of the method: (§2)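 Injury scores (0, no effect; 100, complete control) come from visual comparison with untreated controls roughly ten days post-treatment. Test chemicals in a surfactant-containing non-phytotoxic solvent were applied as a directed soil spray preemergence and to one- to two-leaf seedlings postemergence.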

[6] = system: velvetleaf (Abutilon theophrasti); test: Test A pre-/postemergence plant response; conditions: for Velvetleaf plant response rating: visual injury, 0 to 100 scale (0 no effect, 100 complete control), approx. ten days
Summary of the method: as §2

[7] = system: barnyardgrass (Echinochloa crus-galli); test: Test A pre-/postemergence plant response; conditions: for Barnyardgrass plant response rating: visual injury, 0 to 100 scale (0 no effect, 100 complete control), approx. ten days
Summary of the method: as §2

[8] = system: corn (Zea mays); test: Test A pre-/postemergence plant response; conditions: for Corn plant response rating: visual injury, 0 to 100 scale (0 no effect, 100 complete control), approx. ten days
Summary of the method: as §2

[9] = system: pigweed (Amaranthus retroflexus); test: Test A pre-/postemergence plant response; conditions: for Pigweed plant response rating: visual injury, 0 to 100 scale (0 no effect, 100 complete control), approx. ten days
Summary of the method: as §2

[10] = system: wheat (Triticum aestivum); test: Test A pre-/postemergence plant response; conditions: for Wheat plant response rating: visual injury, 0 to 100 scale (0 no effect, 100 complete control), approx. ten days
Summary of the method: as §2

[11] = system: morningglory (Ipomoea spp.); test: Test A pre-/postemergence plant response; conditions: for Morningglory plant response rating: visual injury, 0 to 100 scale (0 no effect, 100 complete control), approx. ten days
Summary of the method: as §2

[12] = system: large crabgrass (Digitaria sanguinalis); test: Test A pre-/postemergence plant response; conditions: for Crabgrass, Large plant response rating: visual injury, 0 to 100 scale (0 no effect, 100 complete control), approx. ten days
Summary of the method: as §2

[13] = 31 g ai/ha, 0 to 100 scale (0 no effect, 100 complete control)
[14] = 125 g ai/ha, scale 0 to 100 (0 no effect, 100 complete control)
[15] = 250 g ai/ha, scale 0 to 100 (0 no effect, 100 complete control), 13 to 15 days
[16] = Postemergence, 125 g ai/ha, 0 to 100 scale where 0 is no effect and 100 is complete control
[17] = Preemergence, 125 g ai/ha, 0 to 100 scale, 0 = no effect, 100 = complete control
[18] = Preemergence, 500 g ai/ha, 0 to 100 scale, 0 = no effect, 100 = complete control

O=C1CCCC(O)=C1C(=O)c1cnc(C2CC2)n(C2CCCCC2)c1=O [Compound 160]
40: Plant response rating, Wheat [4, 14] | Plant response rating, Barnyardgrass [7, 17]
70: Plant response rating, Foxtail, Giant [5, 16] | Plant response rating, Foxtail, Giant [5, 18] | Plant response rating, Morningglory [11, 17]
60: Plant response rating, Velvetleaf [6, 17] | Corn plant response rating ([8]; Postemergence, 500 g ai/ha)
98: Plant response rating, Cocklebur [2, 13] | Plant response rating, Soybean [3, 14] | Plant response rating, Soybean [3, 15]
100: Plant response rating, Morningglory [1, 14] | Plant response rating, Morningglory [1, 15] | Plant response rating, Cocklebur [2, 14] | Plant response rating, Cocklebur [2, 15] | Plant response rating, Velvetleaf [6, 16] | Velvetleaf plant response rating ([6]; Postemergence, 500 g ai/ha) | Barnyardgrass plant response rating ([7]; Postemergence, 500 g ai/ha) | Plant response rating, Pigweed [9, 16] | Pigweed plant response rating ([9]; Postemergence, 500 g ai/ha) | Plant response rating, Pigweed [9, 18] | Plant response rating, Morningglory [11, 16] | Morningglory plant response rating ([11]; Postemergence, 500 g ai/ha) | Plant response rating, Crabgrass, Large [12, 18]
85: Plant response rating, Soybean [3, 13]
30: Plant response rating, Velvetleaf [6, 18]
75: Plant response rating, Morningglory [1, 13]
90: Plant response rating, Barnyardgrass [7, 16] | Plant response rating, Crabgrass, Large [12, 16] | Crabgrass, Large plant response rating ([12]; Postemergence, 500 g ai/ha)
50: Wheat plant response rating ([10]; Postemergence, 500 g ai/ha)
20: Plant response rating, Foxtail, Giant [5, 17] | Plant response rating, Corn [8, 16] | Plant response rating, Corn [8, 18] | Plant response rating, Wheat [10, 18]
45: Plant response rating, Wheat [4, 15]
80: Foxtail, Giant plant response rating ([5]; Postemergence, 500 g ai/ha) | Plant response rating, Barnyardgrass [7, 18] | Plant response rating, Pigweed [9, 17] | Plant response rating, Crabgrass, Large [12, 17]
10: Plant response rating, Wheat [4, 13]
0: Plant response rating, Corn [8, 17] | Plant response rating, Wheat [10, 16] | Plant response rating, Wheat [10, 17]

Cc1ccc(-n2c(-c3cc(F)cc(F)c3)ncc(C(=O)C3=C(O)CCCC3=O)c2=O)cc1 [Compound 162]
10: Plant response rating, Wheat [4, 13] | Plant response rating, Barnyardgrass [7, 17]
75: Plant response rating, Morningglory [1, 13]
0: Plant response rating, Corn [8, 16] | Plant response rating, Corn [8, 17] | Plant response rating, Corn [8, 18] | Plant response rating, Wheat [10, 17] | Plant response rating, Morningglory [11, 17]
90: Plant response rating, Morningglory [1, 14] | Plant response rating, Foxtail, Giant [5, 18] | Plant response rating, Crabgrass, Large [12, 17]
50: Corn plant response rating ([8]; Postemergence, 500 g ai/ha) | Wheat plant response rating ([10]; Postemergence, 500 g ai/ha) | Plant response rating, Wheat [10, 18]
30: Plant response rating, Foxtail, Giant [5, 17] | Plant response rating, Wheat [10, 16]
35: Plant response rating, Wheat [4, 14]
70: Plant response rating, Foxtail, Giant [5, 16]
60: Plant response rating, Velvetleaf [6, 17]
80: Plant response rating, Morningglory [11, 18] | Plant response rating, Crabgrass, Large [12, 16]
98: Plant response rating, Soybean [3, 13]
100: Plant response rating, Morningglory [1, 15] | Plant response rating, Cocklebur [2, 13] | Plant response rating, Cocklebur [2, 14] | Plant response rating, Cocklebur [2, 15] | Plant response rating, Soybean [3, 14] | Plant response rating, Soybean [3, 15] | Foxtail, Giant plant response rating ([5]; Postemergence, 500 g ai/ha) | Plant response rating, Velvetleaf [6, 16] | Velvetleaf plant response rating ([6]; Postemergence, 500 g ai/ha) | Plant response rating, Velvetleaf [6, 18] | Plant response rating, Barnyardgrass [7, 16] | Barnyardgrass plant response rating ([7]; Postemergence, 500 g ai/ha) | Plant response rating, Barnyardgrass [7, 18] | Plant response rating, Pigweed [9, 16] | Pigweed plant response rating ([9]; Postemergence, 500 g ai/ha) | Plant response rating, Pigweed [9, 17] | Plant response rating, Pigweed [9, 18] | Plant response rating, Morningglory [11, 16] | Morningglory plant response rating ([11]; Postemergence, 500 g ai/ha) | Crabgrass, Large plant response rating ([12]; Postemergence, 500 g ai/ha) | Plant response rating, Crabgrass, Large [12, 18]
40: Plant response rating, Wheat [4, 15]

CCCn1c(-c2cc(Cl)cc(Cl)c2)ncc(C(=O)C2=C(O)CCCC2=O)c1=O [Compound 173]
0: Plant response rating, Barnyardgrass [7, 17] | Plant response rating, Corn [8, 16] | Plant response rating, Corn [8, 17] | Plant response rating, Wheat [10, 16] | Plant response rating, Wheat [10, 17] | Plant response rating, Morningglory [11, 17]
70: Plant response rating, Foxtail, Giant [5, 16] | Plant response rating, Velvetleaf [6, 17] | Plant response rating, Crabgrass, Large [12, 16]
90: Foxtail, Giant plant response rating ([5]; Postemergence, 500 g ai/ha) | Plant response rating, Barnyardgrass [7, 16] | Plant response rating, Pigweed [9, 18] | Crabgrass, Large plant response rating ([12]; Postemergence, 500 g ai/ha)
50: Plant response rating, Wheat [4, 15] | Plant response rating, Pigweed [9, 17]
95: Plant response rating, Morningglory [1, 15] | Plant response rating, Soybean [3, 14]
40: Plant response rating, Wheat [4, 14] | Plant response rating, Foxtail, Giant [5, 18] | Plant response rating, Crabgrass, Large [12, 17]
100: Plant response rating, Cocklebur [2, 14] | Plant response rating, Cocklebur [2, 15] | Plant response rating, Soybean [3, 15] | Plant response rating, Velvetleaf [6, 16] | Velvetleaf plant response rating ([6]; Postemergence, 500 g ai/ha) | Plant response rating, Velvetleaf [6, 18] | Barnyardgrass plant response rating ([7]; Postemergence, 500 g ai/ha) | Plant response rating, Pigweed [9, 16] | Pigweed plant response rating ([9]; Postemergence, 500 g ai/ha) | Plant response rating, Morningglory [11, 16] | Morningglory plant response rating ([11]; Postemergence, 500 g ai/ha) | Plant response rating, Crabgrass, Large [12, 18]
60: Plant response rating, Cocklebur [2, 13] | Plant response rating, Soybean [3, 13] | Plant response rating, Barnyardgrass [7, 18] | Wheat plant response rating ([10]; Postemergence, 500 g ai/ha)
10: Plant response rating, Wheat [4, 13] | Plant response rating, Corn [8, 18]
20: Plant response rating, Foxtail, Giant [5, 17] | Corn plant response rating ([8]; Postemergence, 500 g ai/ha) | Plant response rating, Wheat [10, 18]
75: Plant response rating, Morningglory [1, 13]
80: Plant response rating, Morningglory [1, 14]

O=C1CCCC(O)=C1C(=O)c1cnc(-c2ccsc2)n(C2CCOCC2)c1=O [Compound 186]
50: Plant response rating, Pigweed [9, 17]
20: Plant response rating, Foxtail, Giant [5, 17] | Plant response rating, Morningglory [11, 17]
85: Plant response rating, Soybean [3, 13]
90: Plant response rating, Cocklebur [2, 13] | Foxtail, Giant plant response rating ([5]; Postemergence, 500 g ai/ha) | Barnyardgrass plant response rating ([7]; Postemergence, 500 g ai/ha) | Plant response rating, Morningglory [11, 18] | Plant response rating, Crabgrass, Large [12, 16] | Crabgrass, Large plant response rating ([12]; Postemergence, 500 g ai/ha)
0: Plant response rating, Wheat [4, 13] | Plant response rating, Wheat [4, 14] | Plant response rating, Barnyardgrass [7, 17] | Plant response rating, Corn [8, 16] | Plant response rating, Corn [8, 17] | Plant response rating, Corn [8, 18] | Plant response rating, Wheat [10, 16] | Wheat plant response rating ([10]; Postemergence, 500 g ai/ha) | Plant response rating, Wheat [10, 17] | Plant response rating, Wheat [10, 18]
100: Plant response rating, Morningglory [1, 14] | Plant response rating, Morningglory [1, 15] | Plant response rating, Cocklebur [2, 14] | Plant response rating, Cocklebur [2, 15] | Plant response rating, Soybean [3, 14] | Plant response rating, Soybean [3, 15] | Plant response rating, Velvetleaf [6, 16] | Velvetleaf plant response rating ([6]; Postemergence, 500 g ai/ha) | Plant response rating, Velvetleaf [6, 18] | Plant response rating, Pigweed [9, 16] | Pigweed plant response rating ([9]; Postemergence, 500 g ai/ha) | Plant response rating, Pigweed [9, 18] | Plant response rating, Morningglory [11, 16] | Morningglory plant response rating ([11]; Postemergence, 500 g ai/ha)
95: Plant response rating, Morningglory [1, 13]
80: Plant response rating, Foxtail, Giant [5, 16] | Plant response rating, Barnyardgrass [7, 16] | Plant response rating, Crabgrass, Large [12, 18]
5: Plant response rating, Wheat [4, 15]
60: Plant response rating, Foxtail, Giant [5, 18] | Plant response rating, Velvetleaf [6, 17] | Plant response rating, Barnyardgrass [7, 18] | Corn plant response rating ([8]; Postemergence, 500 g ai/ha)
30: Plant response rating, Crabgrass, Large [12, 17]

From patent US8952024B2, “Herbicidal pyrimidone derivatives” (E I du Pont de Nemours and Company, priority 2009, dated 2015)
